Test results from patent US12534496B2, “Polymorphic forms of Cyclo (-His-Pro) and methods of use to treat kidney disease” (NovMetaPharma Co., Ltd., priority 2018, dated 2026).
Entries after “also recorded” stand apart in the source; their conditions may differ. Each block holds one molecule with its values, some of them ahead of it.

What was measured:
Assay type in all cases: physicochemical
[1] = 8-week stability assessment at 40 °C/75% RH (XRPD, appearance, chiral HPLC); details: for Chiral Purity: chiral HPLC
Experimental: XRPD analysis was carried out on a PANalytical X'pert pro, scanning the samples between 3 and 35° 2θ. The material was gently ground to release any agglomerates and loaded onto a multi-well plate with Kapton or Mylar polymer film to support the sample. The multi-well plate was then placed into the diffractometer and analyzed using Cu K radiation (α1λ=1.54060 Å; α2=1.54443 Å; β=1.39225 Å; α1: α2 ratio=0.5) running in transmission mode (step size 0.0130° 2θ) using 40 kV/40 mA generator settings.
13. Chiral HPLC Column: Daicel IC (5.0 um, 250*4.6 mm) Column Temperature: 30° C. Injection Volume: 5 μL Flow Rate: 1.0 mL/min Mobile Phase A: 0.01% DEA in n-Hexane Mobile Phase B: EtOH:MeOH=2:8 (v/v) Diluent: Acetonitrile PDA Range: 220 nm Gradient program: […]

[2] = 1 day stability assessment at 40 °C/75% RH (XRPD); details: 2 hours at 40 °C/75% RH
[3] = Solvent solubility screen of CHP lyophile
Experimental: To a known mass of CHP lyophile (10 mg, from Section 5.2.2), 100 μL of the appropriate solvent was added and if solid remained the vial was gently heated to ˜40° C. to aid dissolution. Solvent addition continued until the material fully dissolved or 2 mL had been added (<5 mg/mL). The samples were uncapped and allowed to evaporate at ambient. The solvents used in the solubility screen can be found in Table 21.

[4] = Competitive slurry of Pattern 1 and Pattern 2 in EtOH/water/MtBE (form stability, XRPD)
Experimental: In order to study form stability in EtOH/water/MtBE, competitive repining experiments were carried out at 50° C., 35° C., and 5° C. respectively, by adding 100 mg of anhydrous Pattern 1 solid and 100 mg of Pattern 2 solid.

- Appearance ([1]; 2-week): Faint beige
- Appearance ([1]; 4-week): Faint beige
- XRPD form after storage ([1]; 4 weeks): remained as pattern 2
- Appearance ([1]; 8-week): Faint beige
- XRPD form after storage ([1]; 8 weeks): remained as pattern 2
- Appearance ([1]; Initial): Faint beige
- Chiral Purity ([1]; 2-week): 99.9%
- Chiral Purity ([1]; 4-week): 99.9%
- Chiral Purity ([1]; 8-week): 99.9%
- Chiral Purity ([1]; Initial): >99.9%
- XRPD form after storage ([2]; listed as Pure pattern 1): convert to pattern 2
- XRPD form after storage ([2]; listed as pure pattern 1): converts to pattern 2
Compound: O=C1N[C@@H](Cc2cnc[nH]2)C(=O)N2CCC[C@@H]12 [Pure Pattern 1, Cyclo (-His-Pro)]
- XRPD form after storage ([1]; two weeks (14 days)): converted to pattern 2; also recorded: converting to the hydrated pattern 2

- Approximate Solubility ([3]; 1-Butanol): ≥5000 µg/mL
- Approximate Solubility ([3]; 2-Butanol): ≥5000 µg/mL
- Approximate Solubility ([3]; Dichloromethane): ≤5000 µg/mL
- Approximate Solubility ([3]; Ethyl Acetate): ≤5000 µg/mL
- Approximate Solubility ([3]; Ethyl Formate): ≤5000 µg/mL
- Approximate Solubility ([3]; Heptane): ≤5000 µg/mL
- Approximate Solubility ([3]; Isopropyl Acetate): ≤5000 µg/mL
- Approximate Solubility ([3]; Methylethyl Ketone): ≤5000 µg/mL
- Approximate Solubility ([3]; Methylisobutyl Ketone): ≤5000 µg/mL
- Approximate Solubility ([3]; Nitromethane): ≤5000 µg/mL
- Approximate Solubility ([3]; THF): ≤5000 µg/mL
- Approximate Solubility ([3]; acetone): ≤5000 µg/mL
- Approximate Solubility ([3]; acetonitrile): ≤5000 µg/mL
- Approximate Solubility ([3]; tert-Butylmethyl Ether): ≤5000 µg/mL
Compound: O=C1N[C@@H](Cc2cnc[nH]2)C(=O)N2CCC[C@@H]12 [CHP Lyophile, Cyclo (-His-Pro)]

- XRPD tracking ([4]; (EtOH:H2O = 9:1):MTBE = 1:2, 5 °C, 0 h): Pattern 2
- XRPD tracking ([4]; (EtOH:H2O = 9:1):MTBE = 1:2, 5 °C, 2 h): Pattern 2
- XRPD tracking ([4]; (EtOH:H2O = 9:1):MTBE = 1:2, 5 °C, 6 d): Pattern 2
- XRPD tracking ([4]; (EtOH:H2O = 9:1):MTBE = 1:2, 5 °C, 7 d): Pattern 2
- XRPD tracking ([4]; (EtOH:H2O = 9:1):MTBE = 1:2, 35 °C, 0 h): Pattern 2
- XRPD tracking ([4]; (EtOH:H2O = 9:1):MTBE = 1:2, 35 °C, 2 h): Pattern 2
- XRPD tracking ([4]; (EtOH:H2O = 9:1):MTBE = 1:2, 50 °C, 0 h): Pattern 2
- XRPD tracking ([4]; (EtOH:H2O = 9:1):MTBE = 1:2, 50 °C, 2 h): Pattern 2
- XRPD tracking ([4]; (EtOH:H2O = 9:1):MTBE = 1:3, 5 °C, 0 h): Pattern 2
- XRPD tracking ([4]; (EtOH:H2O = 9:1):MTBE = 1:3, 5 °C, 2 h): Pattern 2
- XRPD tracking ([4]; (EtOH:H2O = 9:1):MTBE = 1:3, 5 °C, 6 d): Pattern 2
- XRPD tracking ([4]; (EtOH:H2O = 9:1):MTBE = 1:3, 5 °C, 7 d): Pattern 2
- XRPD tracking ([4]; (EtOH:H2O = 9:1):MTBE = 1:3, 35 °C, 0 h): Pattern 2
- XRPD tracking ([4]; (EtOH:H2O = 9:1):MTBE = 1:3, 35 °C, 2 h): Pattern 2
- XRPD tracking ([4]; (EtOH:H2O = 9:1):MTBE = 1:3, 35 °C, 6 d): Pattern 2
- XRPD tracking ([4]; (EtOH:H2O = 9:1):MTBE = 1:3, 35 °C, 7 d): Pattern 2
- XRPD tracking ([4]; (EtOH:H2O = 9:1):MTBE = 1:3, 50 °C, 0 h): Pattern 2
- XRPD tracking ([4]; (EtOH:H2O = 9:1):MTBE = 1:3, 50 °C, 2 h): Pattern 2
- XRPD tracking ([4]; (EtOH:H2O = 9:1):MTBE = 1:3, 50 °C, 6 d): Pattern 2
- XRPD tracking ([4]; (EtOH:H2O = 9:1):MTBE = 1:3, 50 °C, 7 d): Pattern 2
- XRPD tracking ([4]; (EtOH:H2O = 9:1):MTBE = 2.5:0.5, 5 °C, 0 h): Pattern 2
- XRPD tracking ([4]; (EtOH:H2O = 9:1):MTBE = 2.5:0.5, 5 °C, 2 h): Pattern 2
- XRPD tracking ([4]; (EtOH:H2O = 9:1):MTBE = 2.5:0.5, 5 °C, 6 d): Pattern 2
- XRPD tracking ([4]; (EtOH:H2O = 9:1):MTBE = 2.5:0.5, 5 °C, 7 d): Pattern 2
- XRPD tracking ([4]; (EtOH:H2O = 9:1):MTBE = 2.5:0.5, 35 °C, 0 h): Pattern 2
- XRPD tracking ([4]; (EtOH:H2O = 9:1):MTBE = 2.5:0.5, 35 °C, 2 h): Pattern 2
- XRPD tracking ([4]; (EtOH:H2O = 9:1):MTBE = 2.5:0.5, 35 °C, 6 d): Pattern 2
- XRPD tracking ([4]; (EtOH:H2O = 9:1):MTBE = 2.5:0.5, 35 °C, 7 d): Pattern 2
- XRPD tracking ([4]; (EtOH:H2O = 9:1):MTBE = 2.5:0.5, 50 °C, 0 h): Pattern 2
- XRPD tracking ([4]; (EtOH:H2O = 9:1):MTBE = 2.5:0.5, 50 °C, 2 h): Pattern 2
- XRPD tracking ([4]; (EtOH:H2O = 9:1):MTBE = 2.5:0.5, 50 °C, 6 d): Pattern 2
- XRPD tracking ([4]; (EtOH:H2O = 9:1):MTBE = 3:0, 5 °C, 0 h): Pattern 2
- XRPD tracking ([4]; (EtOH:H2O = 9:1):MTBE = 3:0, 5 °C, 2 h): Pattern 2
- XRPD tracking ([4]; (EtOH:H2O = 9:1):MTBE = 3:0, 5 °C, 6 d): Pattern 2
- XRPD tracking ([4]; (EtOH:H2O = 9:1):MTBE = 3:0, 5 °C, 7 d): Pattern 2
- XRPD tracking ([4]; (EtOH:H2O = 9:1):MTBE = 3:0, 35 °C, 0 h): Pattern 2
- XRPD tracking ([4]; (EtOH:H2O = 9:1):MTBE = 3:0, 35 °C, 2 h): Pattern 2
- XRPD tracking ([4]; (EtOH:H2O = 9:1):MTBE = 3:0, 35 °C, 6 d): Pattern 2
- XRPD tracking ([4]; (EtOH:H2O = 9:1):MTBE = 3:0, 35 °C, 7 d): Pattern 2
- XRPD tracking ([4]; (EtOH:H2O = 9:1):MTBE = 3:0, 50 °C, 0 h): Pattern 2
Compound: O=C1N[C@@H](Cc2c[nH]cn2)C(=O)N2CCC[C@@H]12 [Pattern 1 and Pattern 2]
